Measured values taken from patent publication US12391685B2, “Inhibitors of RNA-guided nuclease target binding and uses thereof” (THE BROAD INSTITUTE, INC., priority 2018, dated 2025).
Entries after “also recorded” stand apart in the source; their conditions may differ. Read-outs that look alike come from different tables or passages of the source.

Tests used:
SpCas9 [1] = target: T1, SpCas9 (Streptococcus pyogenes serotype M1, UniProt Q99ZW2); test: eGFP-disruption assay in U2OS.eGFP.PEST cells; type: cell-based, S. pyogenes; parameters: host or cells: U2OS.eGFP.PEST; conditions: for inhibition of SpCas9 in the eGFP-disruption assay (in words) / inhibition at 15 µM: U2OS.eGFP.PEST cells; for inhibition at 15 µM: screen of structural analogs of BRD7087, 15 μM compound
T1 sequence (Q99ZW2 whole entry): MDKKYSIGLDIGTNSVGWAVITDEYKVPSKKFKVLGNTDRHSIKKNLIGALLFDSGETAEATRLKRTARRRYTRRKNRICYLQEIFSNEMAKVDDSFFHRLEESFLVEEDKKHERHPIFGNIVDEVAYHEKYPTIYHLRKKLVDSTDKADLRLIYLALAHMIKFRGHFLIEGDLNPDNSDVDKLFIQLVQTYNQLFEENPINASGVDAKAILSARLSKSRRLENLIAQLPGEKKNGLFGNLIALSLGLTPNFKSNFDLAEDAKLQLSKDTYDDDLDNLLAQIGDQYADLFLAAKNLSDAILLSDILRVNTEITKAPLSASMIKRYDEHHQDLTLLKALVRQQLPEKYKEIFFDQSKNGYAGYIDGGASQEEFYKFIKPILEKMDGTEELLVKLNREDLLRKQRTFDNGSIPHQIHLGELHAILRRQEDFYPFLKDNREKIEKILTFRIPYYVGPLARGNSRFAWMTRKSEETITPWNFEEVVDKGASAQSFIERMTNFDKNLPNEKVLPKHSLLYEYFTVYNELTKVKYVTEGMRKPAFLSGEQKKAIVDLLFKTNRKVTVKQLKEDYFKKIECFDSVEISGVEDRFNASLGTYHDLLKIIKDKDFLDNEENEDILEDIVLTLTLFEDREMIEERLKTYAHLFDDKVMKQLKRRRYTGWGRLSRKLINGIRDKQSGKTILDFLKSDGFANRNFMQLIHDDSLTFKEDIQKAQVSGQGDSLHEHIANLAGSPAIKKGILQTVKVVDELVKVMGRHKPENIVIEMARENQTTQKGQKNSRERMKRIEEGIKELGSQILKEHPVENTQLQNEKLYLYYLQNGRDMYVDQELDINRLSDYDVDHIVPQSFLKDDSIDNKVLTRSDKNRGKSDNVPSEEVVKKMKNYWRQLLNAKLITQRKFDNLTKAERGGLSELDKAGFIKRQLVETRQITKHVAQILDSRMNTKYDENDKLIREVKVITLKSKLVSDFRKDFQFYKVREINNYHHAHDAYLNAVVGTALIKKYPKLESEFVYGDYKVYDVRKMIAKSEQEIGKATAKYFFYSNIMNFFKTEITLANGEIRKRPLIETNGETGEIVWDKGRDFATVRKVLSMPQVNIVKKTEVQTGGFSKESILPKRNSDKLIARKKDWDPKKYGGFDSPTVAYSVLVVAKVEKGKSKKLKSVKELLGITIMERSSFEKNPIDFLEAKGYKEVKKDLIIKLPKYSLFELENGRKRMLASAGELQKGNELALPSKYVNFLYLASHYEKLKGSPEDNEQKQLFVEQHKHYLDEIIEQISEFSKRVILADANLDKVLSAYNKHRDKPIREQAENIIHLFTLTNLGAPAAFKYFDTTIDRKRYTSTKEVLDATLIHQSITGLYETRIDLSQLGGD
How it was run: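 U2OS.eGFP-PEST cells were nucleofected with SpCas9 plus eGFP Site #1 sgRNA, as plasmids or as preformed RNP (20 pmol). Compound or DMSO was present for 24 h post-transfection. Fixed cells were imaged with a nuclear counterstain, and the % GFP-negative cell population was quantified by automated microscopy.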

SpCas9 [2] = target: T1, SpCas9; type: cell-based, S. pyogenes; parameters: made in house; host or cells: E. coli Rosetta (DE3); conditions: not told
Source text: FIGS. 8A-8H—Structure-activity analysis and inhibition of dCas9-based transcriptional upregulation. (FIG. 8A) Structure-activity relationship studies of BRD3433 in the eGFP-disruption assay in U2OS.eGFP.PEST cells. The set of functional groups on top represents variation at the 1-N-cap position (R^1) whereas those at the bottom represents the functional group variation at the 8-position (R^2). Bar plot depicts the reduction in the activity of different structural analogs with respect to that of BRD3433. Asterisk-labeled compounds contain a methyl group at the 4-N position, while others have a proton. The data are an average of two biological replicates. (FIG. 8B) Inhibition of dSpCas9-based transcriptional upregulation of HBG1 gene in HEK293FT cells by BRD7087. Cells were transfected with dSpCas9, MS2.p65.HSF1.GFP plasmids along with either RFP or HBG1 gRNA plasmid and incubated in the presence of the small molecules at the indicated concentration for 48 h before RT-qPCR analysis. Data represents average of 6 technical replicates. Y-axis represents % fold change in the compound activity with respect to BRD7087. […] (FIG. 8D) Cellular impermeability of the anti-CRISPR protein AcrllA4 assessed by lack of SpCas9 inhibition in the eGFP-disruptoin assay when AcrLLA4 is incubated in the media. […] (FIG. 8F) Human plasma stability of compound as determined by UPLC/MS in MRM method. […]

Row | Compound | EC50 (SpCas9 [1]; EC50, dose-dependent inhibition of SpCas9, U2OS.eGFP.PEST cells, 24 h, tested from 2.8-17.3 μM) | inhibition of SpCas9 in the eGFP-disruption assay (in words) (SpCas9 [1]) | improvement in potency over BRD7087 (SpCas9 [1]; eGFP-disruption assay) | EC50 (SpCas9 [1]; eGFP-disruption assay, read-out: apparent EC50) | inhibition at 15 µM (SpCas9 [1]; 24 h, read-out: Average Inhibition activity) | inhibition at 15 µM (SpCas9 [1]; 24 h, read-out: Inhibition activity Rep 1) | inhibition at 15 µM (SpCas9 [1]; 24 h, read-out: Inhibition activity Rep 2) | potency among the four stereoisomers (SpCas9 [1]; tested from 2.5-15 μM, 24 h) | cell permeability (in words) (SpCas9 [2]) | inhibition at 10 µM (SpCas9 [1]; read-out: inhibition of SpCas9)
1 | Cc1ccc(S(=O)(=O)N2CC[C@@H]3[C@H](CO)Nc4ccc(-c5ccccc5F)cc4[C@@H]32)cc1 [BRD0539, ((3aR,4R,9bR)-8-(2-fluorophenyl)-1-tosyl-2,3,3a,4,5,9b-hexahydro-1H-pyrrolo[3,2-c]quinolin-4-yl) methanol] | 11.5 µM | dose-dependent inhibitory activity; also recorded: able to inhibit | 1.8 fold | 11 µM | 64.2% | 61% | 67.4% | most potent | cell permeable | 
2 | OC[C@H]1Nc2ccc(-c3cccc(F)c3)cc2[C@H]2[C@@H]1CCN2Cc1ccncc1 [BRD7087, ((3aR,4S,9bR)-8-(3-Fluorophenyl)-1-(pyridin-4-ylmethyl)-2,3,3a,4,5,9b-hexahydro-1H-pyrrolo[3,2-c]quinolin-4-yl) methanol] |  | dose-dependent inhibition |  |  |  |  |  |  |  | ~44%
